Read-outs that look alike come from different tables or passages of the source.
Tested on: 134 cancer cell lines
Assay: Cell viability assay (ATPlite, 72 hours), IC50 on cancer cell line panel

IC50 (HEC-6, read-out: IC50 in cell proliferation assay, HEC-6 cell line (EGFR p.A289V)): > 31.6 µM | IC50 (Homo sapiens, 769-P, read-out: IC50 in cell proliferation assay, cell line 769-P): 5.72 µM | IC50 (Homo sapiens, 786-0, read-out: IC50 in cell proliferation assay, cell line 786-O): 7.5 µM | IC50 (Homo sapiens, A 172, read-out: IC50 in cell proliferation assay, cell line A-172): 1.33 µM | IC50 (Homo sapiens, A204, read-out: IC50 in cell proliferation assay, cell line A-204): 2.47 µM | IC50 (Homo sapiens, A498, read-out: IC50 in cell proliferation assay, cell line A-498): 6.25 µM | IC50 (Homo sapiens, A549, read-out: IC50 in cell proliferation assay, cell line A-549): 3.75 µM | IC50 (Homo sapiens, A704, read-out: IC50 in cell proliferation assay, cell line A-704): 2.74 µM | IC50 (Homo sapiens, A-375, read-out: IC50 in cell proliferation assay, cell line A-375 (BRAF p.V600E)): 4.28 µM | IC50 (Homo sapiens, A-427, read-out: IC50 in cell proliferation assay, cell line A-427): 1.53 µM | IC50 (Homo sapiens, ACHN, read-out: IC50 in cell proliferation assay, cell line ACHN): 2.78 µM | IC50 (Homo sapiens, AN3-CA, read-out: IC50 in cell proliferation assay, cell line AN3-CA (FGFR2 p.N549K)): 0.576 µM | IC50 (Homo sapiens, ASPC1, read-out: IC50 in cell proliferation assay, cell line AsPC-1): > 31.6 µM | IC50 (Homo sapiens, AU565, read-out: IC50 in cell proliferation assay, cell line AU565 (ERBB2 amplification)): 2.85 µM | IC50 (Homo sapiens, BT-20, read-out: IC50 in cell proliferation assay, cell line BT-20): 3.36 µM | IC50 (Homo sapiens, BT-474, read-out: IC50 in cell proliferation assay, cell line BT-474 (ERBB2 amplification)): 28.7 µM | IC50 (Homo sapiens, BT-549, read-out: IC50 in cell proliferation assay, cell line BT-549): 3.82 µM | IC50 (Homo sapiens, BXPC-3, read-out: IC50 in cell proliferation assay, cell line BxPC-3): 3.95 µM | IC50 (Homo sapiens, C-33-A, read-out: IC50 in cell proliferation assay, cell line C-33 A): 2.85 µM | IC50 (Homo sapiens, CAL-27, read-out: IC50 in cell proliferation assay, cell line CAL-27): 4.41 µM | IC50 (Homo sapiens, CCF-STTG1, read-out: IC50 in cell proliferation assay, cell line CCF-STTG1): 7.96 µM | IC50 (Homo sapiens, CCRF-CEM, read-out: IC50 in cell proliferation assay, cell line CCRF-CEM): 3.45 µM | IC50 (Homo sapiens, COLO 205, read-out: IC50 in cell proliferation assay, cell line COLO 205 (BRAF p.V600E)): 4.42 µM | IC50 (Homo sapiens, COLO-829, read-out: IC50 in cell proliferation assay, cell line COLO 829 (BRAF p.V600E)): 10.7 µM | IC50 (Homo sapiens, DLD-1, read-out: IC50 in cell proliferation assay, cell line DLD-1): 8.43 µM | IC50 (Homo sapiens, DU-4475, read-out: IC50 in cell proliferation assay, cell line DU4475 (BRAF p.V600E)): 6.24 µM | IC50 (Homo sapiens, Daoy, read-out: IC50 in cell proliferation assay, cell line Daoy): 3.17 µM | IC50 (Homo sapiens, DoTc2-4510, read-out: IC50 in cell proliferation assay, cell line DoTc2 4510): 4.18 µM | IC50 (Homo sapiens, EOL1, read-out: IC50 in cell proliferation assay, cell line EoL-1 (FIP1L1-PDGFRA)): 0.29 µM | IC50 (Homo sapiens, FaDu, read-out: IC50 in cell proliferation assay, cell line FaDu): 4.82 µM | IC50 (Homo sapiens, G-361, read-out: IC50 in cell proliferation assay, cell line G-361 (BRAF p.V600E)): 5.87 µM | IC50 (Homo sapiens, HCC827, read-out: IC50 in cell proliferation assay, cell line HCC827 (EGFR exon19del)): 13.5 µM | IC50 (Homo sapiens, HCC4006, read-out: IC50 in cell proliferation assay, cell line HCC4006 (EGFR exon19del)): 6.75 µM | IC50 (Homo sapiens, HCT-15, read-out: IC50 in cell proliferation assay, cell line HCT 15): 10.7 µM | IC50 (Homo sapiens, HCT-116, read-out: IC50 in cell proliferation assay, cell line HCT 116): 14.9 µM | IC50 (Homo sapiens, HEC-1, read-out: IC50 in cell proliferation assay, HEC-1 cell line): 8.9 µM | IC50 (Homo sapiens, HEC-1B, read-out: IC50 in cell proliferation assay, HEC-1-B cell line (EGFR p.A864V)): 2.07 µM | IC50 (Homo sapiens, HL-60, read-out: IC50 in cell proliferation assay, HL-60 cell line): 5.79 µM | IC50 (Homo sapiens, HT, read-out: IC50 in cell proliferation assay, HT cell line): 4.86 µM | IC50 (Homo sapiens, HT-1080, read-out: IC50 in cell proliferation assay, HT-1080 cell line): 5.16 µM | IC50 (Homo sapiens, Hs746T, read-out: IC50 in cell proliferation assay, Hs 746.T cell line (MET exon14skip + amplification)): 28.1 µM | IC50 (Homo sapiens, Hs-578T, read-out: IC50 in cell proliferation assay, Hs 578T cell line): 3.61 µM | IC50 (Homo sapiens, HuTu80, read-out: IC50 in cell proliferation assay, HuTu 80 cell line): 1.35 µM | IC50 (Homo sapiens, J82, read-out: IC50 in cell proliferation assay, J82 cell line): 3.3 µM | IC50 (Homo sapiens, Jurkat E6.1, read-out: IC50 in cell proliferation assay, Jurkat E6.1 cell line): 4.03 µM | IC50 (Homo sapiens, K562, read-out: IC50 in cell proliferation assay, K-562 cell line): 5.5 µM | IC50 (Homo sapiens, KATO III, read-out: IC50 in cell proliferation assay, KATO III cell line (FGFR2 amplification)): 0.241 µM | IC50 (Homo sapiens, KG-1, read-out: IC50 in cell proliferation assay, KG-1 cell line (FGFR1OP2-FGFR1)): 0.227 µM | IC50 (Homo sapiens, KLE, read-out: IC50 in cell proliferation assay, KLE cell line): 5.6 µM | IC50 (Homo sapiens, KMS-11, read-out: IC50 in cell proliferation assay, KMS-11 cell line (FGFR3 p.Y373C)): 0.661 µM | IC50 (Homo sapiens, KU812, read-out: IC50 in cell proliferation assay, Ku812 cell line): 3.54 µM | IC50 (Homo sapiens, Kasumi 1, read-out: IC50 in cell proliferation assay, Kasumi-1 cell line (KIT p.N822K)): 0.277 µM | IC50 (Homo sapiens, LC-2-ad, read-out: IC50 in cell proliferation assay, LC-2/ad cell line (CCDC6-RET)): 0.018 µM | IC50 (Homo sapiens, LNCaP-Clone-FGC, read-out: IC50 in cell proliferation assay, LNCaP clone FGC cell line): 16.8 µM | IC50 (Homo sapiens, LS174T, read-out: IC50 in cell proliferation assay, LS174T cell line): 4.21 µM | IC50 (Homo sapiens, LS-411N, read-out: IC50 in cell proliferation assay, LS411N cell line (BRAF p.V600E)): 3.76 µM | IC50 (Homo sapiens, LoVo, read-out: IC50 in cell proliferation assay, LoVo cell line): 0.767 µM | IC50 (Homo sapiens, MCF7, read-out: IC50 in cell proliferation assay, MCF-7 cell line): > 31.6 µM | IC50 (Homo sapiens, MDA-MB-231, read-out: IC50 in cell proliferation assay, MDA-MB-231 cell line): 28 µM | IC50 (Homo sapiens, MDA-MB-453, read-out: IC50 in cell proliferation assay, MDA-MB-453 cell line): > 31.6 µM | IC50 (Homo sapiens, MDA-MB-468, read-out: IC50 in cell proliferation assay, MDA-MB-468 cell line): 5.5 µM | IC50 (Homo sapiens, MG-63, read-out: IC50 in cell proliferation assay, MG-63 cell line): 3.08 µM | IC50 (Homo sapiens, MIA PaCa-2, read-out: IC50 in cell proliferation assay, MIA PaCa-2 cell line): 3.4 µM | IC50 (Homo sapiens, MKN-45, read-out: IC50 in cell proliferation assay, MKN45 cell line (MET amplification)): > 31.6 µM | IC50 (Homo sapiens, MOLM-13, read-out: IC50 in cell proliferation assay, MOLM-13 cell line (FLT3 ITD)): 0.123 µM | IC50 (Homo sapiens, MOLT-4, read-out: IC50 in cell proliferation assay, MOLT-4 cell line): 1.67 µM | IC50 (Homo sapiens, MV4-11, read-out: IC50 in cell proliferation assay, MV4-11 cell line (FLT3 ITD)): 0.167 µM | IC50 (Homo sapiens, MeWo, read-out: IC50 in cell proliferation assay, MeWo cell line): 5.53 µM | IC50 (Homo sapiens, NCCIT, read-out: IC50 in cell proliferation assay, NCC-IT cell line): 1.58 µM
SMILES: COc1ccc(CN2C3CC2CN(c2ccc(-c4cc(OCC(C)(C)O)cn5ncc(C#N)c45)cn2)C3)cn1 [selpercatinib]
